Data: US7618958B2, “Stereospecific anxiolytic and anticonvulsant agents with reduced muscle-relaxant, sedative-hypnotic and ataxic effects” (WISYS Technology Foundation, Inc., priority 2004, dated 2009)

How the values were obtained:
Male Sprague-Dawley rats [1] = assay: Open-field locomotor activity in rats; conditions: ratio of lowest effective anxiolytic dose (situational anxiety) and lowest effective dose producing side effects in locomotor activity, PO
Procedure: Open-Field Locomotor Activity in Rats
Male Sprague-Dawley rats, weighing 250-290 grams at the beginning of the experiment were purchased from Charles River Laboratories (Wilmington, Mass.). The animals were housed in groups of four in a colony room maintained at constant temperature (21±2° C.) and humidity (50±10%). The room was illuminated 12 hours per day (lights on at 0600 h). The rats had ad libitum access to food and water. The testing apparatus consisted of Plexiglas chambers (42×42×30 cm) equipped with Digiscan activity monitors (Omnitech Electronics, Columbus, Ohio) that detect interruptions of 16 photobeams spaced 2.5 cm apart and 2.5 cm above the floor. Horizontal activity was monitored for 60 minutes.
(§1) Drug Administration: All drugs were administered PO 20-60 minutes before behavioral testing.
(§2) Data Analysis: Results were expressed as the mean±1 SEM. All data were subjected to analysis of variance (ANOVA) followed by individual mean comparisons using Fisher's Least Significant Difference Test (Kirk, 1968) where appropriate. The significance level was set at p<0.05.
Rats were placed in an open field and the total distance covered by the rat was measured. The test duration was 60 minutes. Compounds producing sedative effects decrease the distance covered.

Male Sprague-Dawley rats [2] = assay: Rotorod performance in rats; conditions: ratio of lowest effective anxiolytic dose (situational anxiety) and lowest effective dose producing side effects in rotorod, PO
Procedure: Rotorod Performance in Rats
Male Sprague-Dawley rats, weighing 180-200 grams at the beginning of the experiment were purchased from Charles River Laboratories (Wilmington, Mass.). The animals were housed in groups of four in a colony room maintained at constant temperature (21±2° C.) and humidity (50±10%). The room was illuminated 12 hours per day (lights on at 0600 h). The rats had ad libitum access to food and water. The degree of muscle coordination or balance (i.e., ataxia) was determined using a standard accelerating rotorod treadmill (Ugo Basile, Comerio-Varese, Italy or Columbus Instruments, Columbus, Ohio) that was 6 cm in diameter, 24 cm above the base, and run from an initial speed of 2 rpm to a maximum speed of 20 rpm. The time each animal remained on the rotating rod was automatically recorded, up to a maximum of 5 minutes.
as §1, §2
The time on the rod for each rat was recorded. Compounds producing ataxia (motor incoordination) decrease the time spent on the rod compared with vehicle-treated animals.

Male CF1 mice = assay: Protection from pentylenetetrazole-induced seizures; format: in vivo, mouse; conditions: PO 60 min before pentylenetetrazole 125 mg/kg s.c.
Procedure: Protection from Pentylenetetrazole-Induced Seizures
Male CF1 mice weighing 20-22 g at the time of the experiment were purchased from Charles River Laboratories (Wilmington, Mass.). Pentylenetetrazole (Sigma Chemical Co.) was administered at 125 mg/kg s.c. The number of animals surviving was recorded at 30 minutes and 60 minutes after administration of pentylenetetrazole.
Drug Administration: All drugs were administered PO 60 minutes before administration of pentyenetetrazole.
Data Analysis: The data are presented as the percent of animals protected from death. The data were analyzed by Chi Square statistics. The significance level was set at p<0.05.
Mice treated with certain compounds of the present invention were subjected to pentylenetetrazole (PTZ) at 125 mg/kg to induce seizures. The percent of animals protected from death within one hour of PTZ was measured.

Male Sprague-Dawley rats [3] = assay: Discriminative stimulus effects of chlordiazepoxide in rats (drug discrimination); conditions: ratio of lowest effective anxiolytic dose (situational anxiety) and lowest effective dose producing chlordiazepoxide-like effects in drug discrimination
male Wistar rats = assay: Elevated plus-maze in rats; format: in vivo, rat; conditions: rats, mean, N 6; for Open Entries: SOLVENT mean 2.57; for Closed Entries: SOLVENT mean 7.14; for Total Distance Travelled (m): SOLVENT mean 9.30; for Total Entries: SOLVENT mean 9.71; for % Open Time: SOLVENT mean 20.43; for % Open Entries: SOLVENT mean 25.57; for Time in open arms: SOLVENT mean 50.29; for Time in closed arms: SOLVENT mean 196.29
Procedure: Except where noted, the methods used were those of Miroslav M., et al., (2004) Pharmacology, Biochemistry and Behavior 79: 279-290. Experiments were carried out on male Wistar rats (Military Farm, Belgrade, Serbia and Montenegro), weighing 200-240 g. All procedures in the study conformed to EEC Directive 86/609 and were approved by the Ethical Committee on Animal Experimentation of the Medical Faculty in Belgrade. The rats were housed in transparent plastic cages, six animals per cage, and had free access to pelleted food and tap water before and after drug administration. The temperature of the animal room was 22±1° C., the relative humidity 40-70%, the illumination 120 1× and the 12/12-h light/dark period (light on at 06:00 h). All handling and testing took place during the light portion of the cycle. Throughout the study the animals were used only once.
Midazolam and flumazenil were generously donated from F. Hoffman-La Roche (Basel, Switzerland). Zolpidem was purchased from Toronto Research Chemicals (North York, Canada) and DMCM from Research Biochemicals (Natick, Mass., USA). All drugs were dissolved/suspended with the aid of sonication in a solvent containing 85% distilled water, 14% propylene glycol and 1% Tween 80™, and were administered intraperitoneally, in a volume of 1 ml/kg, 20 min before testing. Doses are expressed as the base forms of the drugs. In the cases of combined treatment, agonists were administered at separate sites, immediately after the antagonist. Each animal received a total volume of 2 ml/kg of compounds tested or appropriate vehicles, at two different injection sites.
The test apparatus was constructed of sheet metal, with a black rubber floor. It consisted of a maze elevated to a height of 50 cm with two open (50×10 cm) and two enclosed arms (50×10×40 cm), connected by junction area (central platform) measured 10×10 cm. Although the floor was rubberized, a ledge of sheet metal (0.3 cm high) surrounding the open arms was added, to avoid rats falling off. The illumination in the experimental room consisted of one red neon tube fixed on the ceiling, giving light intensity of 10 1× on the surface of the arms. The experiments were carried out during the diurnal phase (between 08:00 and 12:00 h). At the beginning of the experiment, rats were placed in the centre of the maze, facing one of the enclosed arms and observed for 5 min. The observer sat in the same room 1 m from the maze. After each trial, the maze was cleaned with dry and wet towels. Throughout the study, the number of rats per treatment group was 8-14. Each experiment was run over 4 consecutive days, with three control rats per day; as there was no difference in plus-maze activity among control subgroups, they were pooled in a single control group (n=12).
All numerical data presented in the figures were given as the mean±S.E.M. Each dose-response curve (agonist or antagonist alone or agonist+antagonist) was assessed by a one-way ANOVA. If the ANOVA was significant, each treatment condition was compared with the appropriate solvent control by a Dunnett's test (a=0.05). In case of significant effect in the number of enclosed arm entries, an analysis of covariance (ANCOVA) was performed in the anxiety-related parameters using the number of enclosed arm entries as covariate. Interactions between the agonists and antagonists were analyzed separately with a two-way ANOVA [factors: agonist dose versus cotreatment (an antagonist or saline)]; pairwise comparisons for the assessment of the antagonist influence on the agonist effects were conducted by Tukey's test, one of the methods recommended even in the absence of an overall significant F-test (Wilcox R R. New designs in analysis of variance. Annu Rev Psychol 1987; 38: 29-60). Statistical analyses were performed with commercial statistical software for PC, Stat for Windows R. 5.0.

[4] = DZP 1.25 mg/kg ip, t test p ≦ 0.05

For CCOC(=O)c1ncn2c1CN=C(c1ccccc1)c1cc(Cl)ccc1-2, which melting point is on record?
The melting point was 174 to 175 °C.

With CNC1=Nc2ccc(Br)cc2C(c2ccccc2)=NC1 as the compound, how does the melting point read?
Its melting point is 234 to 235 °C.

With CNC1=Nc2ccc(C#C[Si](C)(C)C)cc2C(c2ccccc2)=NC1 as the compound, how does the melting point read?
The melting point was 210 to 211 °C.

Which melting point does the source give for CN1C(=O)CN=C(c2ccccn2)c2cc(C#C[Si](C)(C)C)ccc21 here?
The melting point was 194 to 195 °C.

With C#Cc1ccc2c(c1)C(c1ccccn1)=NCC(=O)N2C as the compound, how does the melting point read?
Its melting point is 190 to 191 °C.

Which melting point does the source give for CCOC(=O)c1ncn2c1CN=C(c1ccccn1)c1cc(C#C[Si](C)(C)C)ccc1-2 here?
Its melting point is 205 to 206 °C.

With CCOC(=O)c1ncn2c1CN=C(c1cccs1)c1cc(C#C[Si](C)(C)C)ccc1-2 as the compound, how does the melting point read?
Its melting point is 124 to 127 °C.

For CCOC(=O)c1ncn2c1C(C)N=C(c1ccccc1)c1cc(Br)ccc1-2 (stereo not shown), which melting point is on record?
The melting point was 164 to 165 °C.

With CCOC(=O)c1ncn2c1C(C)N=C(c1ccccc1)c1cc(C#C[Si](C)(C)C)ccc1-2 (stereo not shown) as the compound, how does the melting point read?
The melting point was 160 to 162 °C.

For CCOC(=O)c1ncn2c1C(C)N=C(c1ccccc1F)c1cc(C#C[Si](C)(C)C)ccc1-2 (stereo not shown), which melting point is on record?
The melting point was 186 to 187 °C.

With CCOC(=O)c1ncn2c1C(C)N=C(c1ccccn1)c1cc(C#C[Si](C)(C)C)ccc1-2 (stereo not shown) as the compound, how does the melting point read?
The melting point was 197 to 198 °C.

For CC(C)(C)OC(=O)c1ncn2c1CN=C(c1ccccc1)c1cc(Br)ccc1-2, which melting point is on record?
The melting point was 222 to 223 °C.

For Cc1nnc2n1-c1ccc(C#CC(C)(C)C)cc1C(c1ccccc1Cl)=NC2, which melting point is on record?
Its melting point is > 268 °C (dec.).

With Cc1nnc2n1-c1ccc(C#CC(C)(C)C)cc1C(c1ccccc1)=NC2 as the compound, how does the melting point read?
The melting point was 184 to 186 °C.

For O=C(OCC(F)(F)F)c1ncn2c1CN=C(c1ccccc1)c1cc(Br)ccc1-2, which melting point is on record?
The melting point was 202 to 204 °C.

Which melting point does the source give for O=C(OCC(Cl)(Cl)Cl)c1ncn2c1CN=C(c1ccccc1)c1cc(Br)ccc1-2 here?
The melting point was 113 to 116 °C.

With C[Si](C)(C)C#Cc1ccc2c(c1)C(c1ccccc1)=NCc1c(C(=O)OCC(F)(F)F)ncn1-2 as the compound, how does the melting point read?
Its melting point is 107 to 110 °C.

For CCOC(=O)c1ncn2c1CN=C(c1ccccc1)c1cc(Br)ccc1-2 [DM-i-070, Ethyl 8-bromo-6-phenyl-4H-benzo[f]imidazo[1,5-a][1,4]diazepine-3-carboxylate], which Antianxiety/sedation (Male Sprague-Dawley rats [1]) is on record?
Its Antianxiety/sedation is greater than 100.

What about the Antianxiety/ataxia (Male Sprague-Dawley rats [2]) of the same compound?
The Antianxiety/ataxia was greater than 100.

What about the “PTZ Seizures, effective dose” value (Male CF1 mice) of the same compound?
Its value is less than 100 mg/kg.

What about the Antianxiety/abuse liability (Male Sprague-Dawley rats [3]) of the same compound?
Its Antianxiety/abuse liability is 10.

For CN1C(=O)CN=C(c2ccccc2)c2cc(Cl)ccc21 [Diazepam, reference compound], which “PTZ Seizures, effective dose” value (Male CF1 mice) is on record?
Its value is less than 10 mg/kg.

What about the “Open Entries” value (male Wistar rats; [4]) of the same compound?
Its value is 4.83.

What about the “Closed Entries” value (male Wistar rats; DZP 1.25 mg/kg ip, t test p = 0.292) of the same compound?
Its value is 5.50.

What about the “Total Distance Travelled (m)” value (male Wistar rats; DZP 1.25 mg/kg ip, t test p = 0.670) of the same compound?
The value was 8.59 m.

And the “Total Entries” value (male Wistar rats; DZP 1.25 mg/kg ip, t test p = 0.745)?
The value was 10.33.

What about the “% Open Time” value (male Wistar rats; [4]) of the same compound?
The value was 46.33%.

What about the “% Open Entries” value (male Wistar rats; [4]) of the same compound?
The value was 47.00%.

What about the “Time in open arms” value (male Wistar rats; DZP 1.25 mg/kg ip, t test p = 0.052) of the same compound?
Its value is 104.17.

What about the “Time in closed arms” value (male Wistar rats; DZP 1.25 mg/kg ip, t test p = 0.064) of the same compound?
Its value is 129.50.

And the Antianxiety/abuse liability (Male Sprague-Dawley rats [3])?
The Antianxiety/abuse liability was 5.

Which “Open Entries” value (male Wistar rats; SH-053-2′F-S—CH3 10 mg/kg ip, t test p = 0.503) does the source give for C#Cc1ccc2c(c1)C(c1ccccc1F)=NC(C)c1c(C(=O)OCC)ncn1-2 (stereo not shown) [SH-053-2′F-S—CH3, 8-Ethynyl-6-(2-fluorophenyl)-4-methyl-4H-2,5,10b-triaza-benzo[e]azulene-3-carboxylic acid ethyl ester] here?
Its value is 3.33.

And the “Closed Entries” value (male Wistar rats; SH-053-2′F-S—CH3 10 mg/kg ip, t test p ≦ 0.05)?
Its value is 4.67.

And the “Total Distance Travelled (m)” value (male Wistar rats; SH-053-2′F-S—CH3 10 mg/kg ip, t test p = 0.080)?
Its value is 6.91 m.

What about the “Total Entries” value (male Wistar rats; SH-053-2′F-S—CH3 10 mg/kg ip, t test p = 0.239) of the same compound?
Its value is 8.00.

What about the “% Open Time” value (male Wistar rats; SH-053-2′F-S—CH3 10 mg/kg ip, t test p = 0.536) of the same compound?
Its value is 25.00%.

And the “% Open Entries” value (male Wistar rats; SH-053-2′F-S—CH3 10 mg/kg ip, t test p = 0.147)?
Its value is 37.17%.

What about the “Time in open arms” value (male Wistar rats; SH-053-2′F-S—CH3 10 mg/kg ip, printed t test line doubtful) of the same compound?
The value was 60.50.

What about the “Time in closed arms” value (male Wistar rats; SH-053-2′F-S—CH3 10 mg/kg ip, t test p = 0.586) of the same compound?
The value was 183.33.

Which results are given for Cc1nnc2n1-c1ccc(Cl)cc1C(c1ccccc1Cl)=NC2 [Triazolam, reference compound]?
Antianxiety/sedation (Male Sprague-Dawley rats [1]): 300; Antianxiety/ataxia (Male Sprague-Dawley rats [2]): 100; PTZ Seizures, effective dose (Male CF1 mice): <1.0 mg/kg; Antianxiety/abuse liability (Male Sprague-Dawley rats [3]): 30
